Measurements: US5468469A, “Methods of using azo dyes and their derivatives” (The United States of America as represented by the …, priority 1994, dated 1995)

How the values were obtained:
CD4 [1] = target: T1, CD4 (Homo sapiens, UniProt P01730); assay: Dose-response of inhibition of αCD4 binding in presence (RPMI 1640 with 5% serum) and absence (PBS) of serum; details: RPMI 1640 with 5% serum versus PBS; FIG. 1
T1 construct: PBL were prepared by density gradient centrifugation; endogenous in cells; host or cells: human peripheral blood lymphocytes (PBL)
Protocol: (§1) For these binding assays, PBL were prepared by density gradient centrifugation, and the effect of the azo dyes on the binding of anti-CD4-FITC (Becton Dickinson, Mountain View, Calif.) was measured (Weaver et al., supra). Cells were treated with an azo dye for at least 10 minutes at room temperature, or for more than 30 minutes at 4° C., and were then contacted with FITC-labeled antibody. Binding was measured by quantitating cell bound fluorescence using flow cytometry.

CD4 [2] = target: T1, CD4; assay: Inhibition of binding of αCD4-FITC (anti-Leu3a) to PBL, flow cytometry
Protocol: as §1

[3] = target: T2, HIV rgp120 binding to CD4 (Homo sapiens, UniProt P01730); assay: Inhibition of HIV rgp120 binding to CD4 on PBL, detected with anti-rgp120-FITC; details: PBS, % logarithmic mean channel number of rgp120 binding detected by αrgp120-FITC
T2 construct: PBL were prepared by density gradient centrifugation; endogenous in cells; host or cells: human peripheral blood lymphocytes (PBL)
Protocol: as §1, with “Since anti-Leu3a (αCD4) and recombinant HIV coat protein (rgp120) bind to the same site on the CD4 molecule, interference in binding of CD4 confirms interference in HIV binding to αCD4 (Weaver et al., AIDS Res. Human Retrovir., 6, 1125-1130 (1990)). For” for “For”
The ability of Direct Orange 26, Direct Red 23, Direct Red 24, and Direct Red 26 to inhibit the binding of HIV rgp120 to CD4 was determined using monoclonal anti-rgp120-FITC (Genentech, Inc., San Francisco, Calif.) to detect recombinant HIV coat protein in the binding assay described in Example 1.

[4] = target: T3, CD3 (αCD3 binding to PBL) (Homo sapiens, UniProt P07766); assay: Specificity: binding of αCD3-FITC to PBL; details: PBS, % logarithmic mean channel number of αCD3-FITC binding, read-out: % Control Binding (αCD3)
T3 construct: endogenous in cells; host or cells: human peripheral blood lymphocytes (PBL)

[5] = target: T4, CD8 (αCD8 binding to PBL) (Homo sapiens, UniProt P01732); assay: Specificity: binding of αCD8-FITC to PBL; details: PBS, % logarithmic mean channel number of αCD8-FITC binding, read-out: % Control Binding (αCD8)
T4 construct: endogenous in cells; host or cells: human peripheral blood lymphocytes (PBL)
Protocol: as §1, with “Since anti-Leu3a (αCD4) and recombinant HIV coat protein (rgp120) bind to the same site on the CD4 molecule, interference in binding of CD4 confirms interference in HIV binding to αCD4 (Weaver et al., AIDS Res. Human Retrovir., 6, 1125-1130 (1990)). For” for “For”
The specificity of the dyes was confirmed by testing their ability to interfere with the binding of two other monoclonal antibodies, αCD3 and αCD8, to PBL using the binding assay described in Example 1.

[6] = Viability of PBL after 72 hour culture with αTCR stimulation, propidium iodide exclusion; format: cell-based, human; details: pbl
Protocol: (§2) Cells were then washed once in PBS, and resuspended in PBS with 3 μg/ml propidium iodide. After 10 minutes incubation, the cells were analyzed by flow cytometry. Live cells were defined as those excluding propidium iodide.

PBL = assay: as above; format: cell-based, human
Protocol: as §2

HIV isolate LAV-1BR = assay: HIV replication in phytohemagglutinin-stimulated human PBL, intracellular p24 ELISA; format: cell-based; details: six days culture; for pg/ml HIV p24: virus only 101,000
Source text: The ability of the azo dyes to negatively affect HIV replication was verified after six days of culturing the HIV isolate LAV-1BR in phytohemagglutinin-stimulated human PBL. For this experiment, the amount of intracellular HIV p24 protein in cell lysates was quantitated with use of an HIV p24 enzyme linked immunosorbent assay kit (Cellular Products, Buffalo, N.Y.) as described in Anand et al., AIDS Res. Human Retrovir., 6, 679-689 (1990). This measure of p24 protein was considered an indication of HIV replication. Aurintricarboxylic acid (ATA; Sigma Chemical Co., St. Louis, Mo.) was included in this experiment as a positive control, and the solvent DMSO was utilized for further comparative purposes.

[7] = read-out: % Control Binding (HIV rgp120)
[8] = 20 μM, PBS, % logarithmic mean channel number of αCD4-FITC binding

T4 sequence (P01732 22-235): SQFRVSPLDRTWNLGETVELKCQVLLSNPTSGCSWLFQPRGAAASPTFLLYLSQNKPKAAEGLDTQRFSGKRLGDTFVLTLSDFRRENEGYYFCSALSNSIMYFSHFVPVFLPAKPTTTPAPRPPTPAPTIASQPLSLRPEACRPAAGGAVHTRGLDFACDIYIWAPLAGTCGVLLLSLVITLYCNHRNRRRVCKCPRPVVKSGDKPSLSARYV
T4 sequence (P10966 22-210 partner): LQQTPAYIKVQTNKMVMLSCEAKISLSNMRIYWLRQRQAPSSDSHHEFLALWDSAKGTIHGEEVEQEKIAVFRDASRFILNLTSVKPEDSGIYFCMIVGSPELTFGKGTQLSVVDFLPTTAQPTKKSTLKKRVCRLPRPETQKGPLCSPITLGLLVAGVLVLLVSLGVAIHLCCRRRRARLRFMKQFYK
T3 sequence (P07766 23-207): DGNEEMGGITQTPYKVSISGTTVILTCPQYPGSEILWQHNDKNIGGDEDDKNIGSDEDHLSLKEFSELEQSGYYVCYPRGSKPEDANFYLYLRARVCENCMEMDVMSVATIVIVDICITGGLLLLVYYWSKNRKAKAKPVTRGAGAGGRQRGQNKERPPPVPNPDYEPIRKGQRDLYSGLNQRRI
T3 sequence (P04234 22-171 partner): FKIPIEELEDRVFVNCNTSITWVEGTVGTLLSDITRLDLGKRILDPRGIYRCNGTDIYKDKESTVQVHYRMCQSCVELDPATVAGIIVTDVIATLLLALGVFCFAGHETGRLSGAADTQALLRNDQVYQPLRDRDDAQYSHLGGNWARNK
T3 sequence (P09693 23-182 partner): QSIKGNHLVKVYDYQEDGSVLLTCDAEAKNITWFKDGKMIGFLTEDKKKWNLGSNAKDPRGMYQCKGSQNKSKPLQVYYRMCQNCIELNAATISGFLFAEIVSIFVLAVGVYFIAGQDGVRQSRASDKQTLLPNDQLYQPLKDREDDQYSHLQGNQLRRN
T3 sequence (P20963 22-164 partner): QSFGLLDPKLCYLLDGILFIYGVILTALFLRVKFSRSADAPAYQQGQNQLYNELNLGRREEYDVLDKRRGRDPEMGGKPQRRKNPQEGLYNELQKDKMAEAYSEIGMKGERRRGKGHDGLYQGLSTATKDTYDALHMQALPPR

Compound: COc1cc(N=Nc2cc(S(=O)(=O)[O-])cc3cc(S(=O)(=O)[O-])cc(O)c23)c(C)cc1NC(=O)Nc1cc(C)c(N=Nc2cc(S(=O)(=O)[O-])cc3cc(S(=O)(=O)[O-])cc(O)c23)cc1OC.[Na+].[Na+].[Na+].[Na+] [Direct Red 79]
- Fold more dye needed to inhibit αCD4 binding in the presence of serum (CD4 [1]): about 100 ×

Compound: CC(=O)Nc1ccc(N=Nc2c(S(=O)(=O)O)cc3cc(NC(=O)Nc4ccc5c(O)c(N=Nc6ccccc6)c(S(=O)(=O)O)cc5c4)ccc3c2O)cc1 [Direct Red 23]
- Inhibition of the binding of αCD4 to CD4 (in words) (CD4 [2]; 20 μM): completely inhibited
- remaining activity at 20 µM (CD4 [2]; 20 μM, PBS, % logarithmic mean channel number of αCD4-FITC binding, read-out: % Control Binding (αCD4)): 0%
- remaining activity at 5 µM ([3]; 5.0 μM, read-out: % Control Binding (HIV rgp120)): 10 to 15%

Compound: Cc1cc(-c2ccc(/N=N/c3ccc4c(S(=O)(=O)O)cc(S(=O)(=O)O)c(N)c4c3O)c(C)c2)ccc1/N=N/c1ccc2c(S(=O)(=O)O)cc(S(=O)(=O)O)c(N)c2c1O [Evans Blue, Evans blue, reference compound]
- % Control Binding (αCD4) (CD4 [2]; 1 μM, PBS, % logarithmic mean channel number of αCD4-FITC binding): 1%
- remaining activity at 1 µM (CD4 [2]; 1 μM, PBS, % logarithmic mean channel number of αCD4-FITC binding, read-out: % Control Binding (αCD4)): 1%
- remaining activity at 1 µM [3, 7]: 8%

Compound: COc1ccccc1N=Nc1c(S(=O)(=O)[O-])cc2cc(NC(=O)Nc3ccc4c(O)c(N=Nc5ccc(S(=O)(=O)[O-])cc5C)c(S(=O)(=O)[O-])cc4c3)ccc2c1O.[Na+].[Na+].[Na+] [Direct Red 24]
- Inhibition of the binding of αCD4 to CD4 (in words) (CD4 [2]; 20 μM): completely inhibited
- % Control Binding (αCD4) (CD4 [2]; [8]): 0%
- % Control Binding (HIV rgp120) ([3]; 5.0 μM): 10-15%

Compound: Direct Red 26
- Inhibition of the binding of αCD4 to CD4 (in words) (CD4 [2]; 20 μM): completely inhibited
- % Control Binding (αCD4) (CD4 [2]; [8]): 0%
- % Control Binding (HIV rgp120) ([3]; 5.0 μM): 10-15%

Compound: O=S(=O)([O-])c1ccc2c(N=Nc3ccccc3)ccc(N=Nc3ccc(Nc4ccccc4)c4c(S(=O)(=O)[O-])cccc34)c2c1.[Na+].[Na+] [Acid Blue 116]
- Fold more dye needed to inhibit αCD4 binding in the presence of serum (CD4 [1]): about 100 ×

Compound: O=C(Nc1ccc2c(O)c(N=Nc3ccccc3)c(S(=O)(=O)O)cc2c1)Nc1ccc2c(O)c(N=Nc3ccccc3)c(S(=O)(=O)O)cc2c1 [Direct Orange 26]
- Inhibition of the binding of αCD4 to CD4 (in words) (CD4 [2]; 10 μM): completely inhibited
- remaining activity at 10 µM (CD4 [2]; 10 μM, PBS, % logarithmic mean channel number of αCD4-FITC binding, read-out: % Control Binding (αCD4)): 0%
- remaining activity at 1 µM [3, 7]: 26%
- remaining activity at 2.5 µM ([3]; 2.5 μM, read-out: % Control Binding (HIV rgp120)): 15%
- remaining activity at 10 µM [4]: 103%
- remaining activity at 10 µM [5]: 65%
- Fold more dye needed to inhibit αCD4 binding in the presence of serum (CD4 [1]): about 5 ×
- viability at 72 h, 400 µM ([6]; 400 μM, untreated 78.2, read-out: % Viable Cells): 67.5%
- viability at 72 h, 800 µM ([6]; 800 μM, untreated 78.2, read-out: % Viable Cells): 71.5%
- cytotoxicity at 72 h ([6]; 400-800 μM, read-out: Reduction of viability): ≤ 10%
- Effect on PBL viability / lymphocyte proliferation (in words) (PBL): only a slight negative effect
- pg/ml HIV p24 (HIV isolate LAV-1BR; 50 μg/ml): 71 pg/mL
- pg/ml HIV p24 (HIV isolate LAV-1BR; 100 μg/ml): 61 pg/mL
- Effect on HIV replication (in words) (HIV isolate LAV-1BR; 50-100 μg/ml): strongly decrease HIV replication

Compound: Cc1ccccc1N=Nc1ccc(N=Nc2c(O)c(S(=O)(=O)[O-])cc3cc(S(=O)(=O)[O-])ccc23)c(C)c1.[Na+].[Na+] [Acid Red 115]
- Fold more dye needed to inhibit αCD4 binding in the presence of serum (CD4 [1]): about 100 ×

Compound: O=C(O)C1=CC(=C(c2ccc(O)c(C(=O)O)c2)c2ccc(O)c(C(=O)O)c2)C=CC1=O [ATA, Aurintricarboxylic acid, reference compound]
- pg/ml HIV p24 (HIV isolate LAV-1BR; 50 μg/ml): 1 pg/mL
